Data as given in patent US20190151289A1, “Identification of Small Molecule Inhibitors of Jumonji AT-Rich Interactive Domain 1A (JARID1A) Histone Demethylase” (YALE UNIVERSITY, priority 2016, published 2019).

Legend:
KDM5C = biological target: T1, KDM5C (Homo sapiens, UniProt P41229); experiment: AlphaScreen KDM5C demethylation assay; assay type: biochemical
T1 construct: FLAG; made in house
Description: Histone demethylase assays were performed using previously described methods (Sayegh et al., 2013, J. Biol. Chem. 9408-9417), with the exception of all enzyme reactions containing 125 μM α-KG. Enzymes were used at the following approximate concentrations in validation experiments, chosen based on their activity in AlphaScreen assays: 19 nM FLAG-KDM5A, 15 nM FLAG-KDM5B, 6 nM FLAG-KDM5C, 29 nM His-FLAG-KDM6A, and 16 nM FLAG-KDM6B. 24 nM FLAG-KDM5A was used for Km determination experiments. Reactions were carried out for 1 hour, or were stopped by addition of 30 mM EDTA every 5 minutes for determining enzyme kinetics. Km values were calculated using the Michaelis-Menten non-linear regression analysis on GraphPad Prism 6.0 software. The concentration of DMSO in demethylation reactions was 0.05%. For reactions with catalase, catalase (Sigma C30) or an equal volume of dilution buffer was added to the peptide-containing buffer before addition of the demethylase. The final concentration of catalase in the reactions was 0.01 mg/ml.
The AlphaScreen general IgG (protein A) detection kit from PerkinElmer Life Sciences was used as described previously (Sayegh et al., 2013, J. Biol. Chem. 9408-9417). The luminescence emission was recorded at 570 nm using the AlphaScreen optic module on a Pherastar (BMG Labtech) or Envision (PerkinElmer Life Sciences) microplate reader.

[1] = test system: H3K4 methylation in ZR-75-1 cells; experiment: Western blot of global H3K4 methylation, ZR-75-1; assay type: cell-based, human; details: ZR-75-1, 48 hour treatment
Description: (§1) Sf21 insect cells were cultured at 27° C. in Grace's medium (Gibco) with 10% fetal bovine serum (FBS) and 1% penicillin/streptomycin. HeLa cells were cultured in DMEM (Gibco) with 10% FBS and 1% penicillin/streptomycin. BT474, MCF7, MDA-MB-231, PC9 and ZR-75-1 cells were cultured in RPMI 1640 (Gibco) with 10% FBS and 1% penicillin/streptomycin. MCF10A cells were cultured as using previously described methods (Sayegh et al., 2013, J. Biol. Chem. 9408-9417). All human cells were cultured at 37° C. and 5% carbon dioxide. HeLa and MCF7 cell lines were authenticated using short tandem repeat profiling performed at the DNA Analysis Facility on Science Hill at Yale University. All other human cell lines used were within 10 passages after being obtained from the American Type Culture Collection.
(§2) Cells were lysed using previously described methods (Lin et al., 2011, Proc. Natl. Acad. Sci. U.S.A. 108:13379-13386). Histones were separated by centrifugation, resuspended in Laemmeli buffer, and sonicated. Protein concentration of cell lysates was measured by Bradford assay. Samples in Laemmeli buffer were boiled 10 minutes at 95° C. and loaded onto 7% (whole cell lysates) or 18% (histones) SDS-PAGE gels. […] Signal was quantified using ImageJ software.

[2] = test system: H3K4 methylation in MDA-MB-231 cells; experiment: Western blot of global H3K4 methylation, MDA-MB-231; assay type: cell-based, human; details: MDA-MB-231, 72 hr treatment
Description: as §1, §2

[3] = test system: H3K4 methylation in MCF10A cells; experiment: Western blot of global H3K4 methylation, MCF10A; assay type: cell-based, human; details: 72 hr treatment
Description: as §1, §2

HeLa cells [4] = experiment: WST-1 cell proliferation assay, HeLa; assay type: cell-based, human; details: after 3 days
Description: (§3) WST-1 reagent from Roche Applied Sciences (11644807001) was used to measure cell number before drug addition and after 3 or 5 days of growth using previously described methods (Sayegh et al., 2013, J. Biol. Chem. 9408-9417). Cells were seeded in 96-well plates at the following number of cells per well: HeLa (2000), MCF7 (2000), ZR-75-1 (1000), MCF10A (1000), MDA-MB-231(5000). Assays were performed in technical quadruplicates and biological triplicates. DMSO was used at 0.1%. Relative absorbance was calculated by subtracting the average background (media only) signal, dividing by the average signal on day 0, and then dividing by the average day 5/day 0 ratio for the DMSO controls. Significance was calculated by unpaired, two-tailed student's t-test using GraphPad Prism 6.0 software.

ZR-75-1 cells = experiment: WST-1 cell proliferation assay, ZR-75-1; assay type: cell-based, human; details: ZR-75-1, 5 days of treatment
Description: as §3

HeLa cells [5] = experiment: Colony formation assay, HeLa; assay type: cell-based, human
Description: (§4) Cells were seeded in 6-well plates at low density: HeLa, MCF7, BT474, and PC9 cells at 1000, 2000, 2500, and 2000 cells/well respectively. Media containing the prescribed drugs or 0.1% DMSO was replaced every 3 days. Trastuzumab was used at 5 μg/ml. Gefitinib was used at 2 μM. YUKA1 was used at 50 or 100 μM. Doxycycline was used at 1 μg/ml for 3 days. After 7-42 days depending on the rate of cell growth, cells were fixed in 4% para-formaldehyde in phosphate-buffered saline for 10 minutes rocking at room temperature. They were incubated in 0.05% crystal violet in double-distilled water for 30 minutes rocking at room temperature, washed with water, and dried 24 hours before photographing. ColonyArea, a plugin for ImageJ software, was used for quantification (Guzman et al., 2014, PloS One 9:e92444). Unpaired, two-tailed student's t-test was used to determine significance using GraphPad Prism 6.0 software.
(§5) HeLa (FIG. 11A) and MDA-MB231 cells (FIG. 11B) were treated with DMSO, 5 μM KDMS-C70 or 50 or 100 μM YUKA1 in colony-formation assays. The tables in FIGS. 11C and 11D depict the quantification of experimental data.

PC9 cells = experiment: Colony formation assay, PC9 (gefitinib tolerance); assay type: cell-based, human
Description: as §4

BT474 cells = experiment: Colony formation assay, BT474 (trastuzumab tolerance); assay type: cell-based, human
Description: as §4

MDA-MB231 cells = experiment: Colony formation assay, MDA-MB231; assay type: cell-based, human; details: 5 μM KDMS-C70 or 50 or 100 μM YUKA1
Description: as §4, §5

T1 sequence (P41229 whole entry): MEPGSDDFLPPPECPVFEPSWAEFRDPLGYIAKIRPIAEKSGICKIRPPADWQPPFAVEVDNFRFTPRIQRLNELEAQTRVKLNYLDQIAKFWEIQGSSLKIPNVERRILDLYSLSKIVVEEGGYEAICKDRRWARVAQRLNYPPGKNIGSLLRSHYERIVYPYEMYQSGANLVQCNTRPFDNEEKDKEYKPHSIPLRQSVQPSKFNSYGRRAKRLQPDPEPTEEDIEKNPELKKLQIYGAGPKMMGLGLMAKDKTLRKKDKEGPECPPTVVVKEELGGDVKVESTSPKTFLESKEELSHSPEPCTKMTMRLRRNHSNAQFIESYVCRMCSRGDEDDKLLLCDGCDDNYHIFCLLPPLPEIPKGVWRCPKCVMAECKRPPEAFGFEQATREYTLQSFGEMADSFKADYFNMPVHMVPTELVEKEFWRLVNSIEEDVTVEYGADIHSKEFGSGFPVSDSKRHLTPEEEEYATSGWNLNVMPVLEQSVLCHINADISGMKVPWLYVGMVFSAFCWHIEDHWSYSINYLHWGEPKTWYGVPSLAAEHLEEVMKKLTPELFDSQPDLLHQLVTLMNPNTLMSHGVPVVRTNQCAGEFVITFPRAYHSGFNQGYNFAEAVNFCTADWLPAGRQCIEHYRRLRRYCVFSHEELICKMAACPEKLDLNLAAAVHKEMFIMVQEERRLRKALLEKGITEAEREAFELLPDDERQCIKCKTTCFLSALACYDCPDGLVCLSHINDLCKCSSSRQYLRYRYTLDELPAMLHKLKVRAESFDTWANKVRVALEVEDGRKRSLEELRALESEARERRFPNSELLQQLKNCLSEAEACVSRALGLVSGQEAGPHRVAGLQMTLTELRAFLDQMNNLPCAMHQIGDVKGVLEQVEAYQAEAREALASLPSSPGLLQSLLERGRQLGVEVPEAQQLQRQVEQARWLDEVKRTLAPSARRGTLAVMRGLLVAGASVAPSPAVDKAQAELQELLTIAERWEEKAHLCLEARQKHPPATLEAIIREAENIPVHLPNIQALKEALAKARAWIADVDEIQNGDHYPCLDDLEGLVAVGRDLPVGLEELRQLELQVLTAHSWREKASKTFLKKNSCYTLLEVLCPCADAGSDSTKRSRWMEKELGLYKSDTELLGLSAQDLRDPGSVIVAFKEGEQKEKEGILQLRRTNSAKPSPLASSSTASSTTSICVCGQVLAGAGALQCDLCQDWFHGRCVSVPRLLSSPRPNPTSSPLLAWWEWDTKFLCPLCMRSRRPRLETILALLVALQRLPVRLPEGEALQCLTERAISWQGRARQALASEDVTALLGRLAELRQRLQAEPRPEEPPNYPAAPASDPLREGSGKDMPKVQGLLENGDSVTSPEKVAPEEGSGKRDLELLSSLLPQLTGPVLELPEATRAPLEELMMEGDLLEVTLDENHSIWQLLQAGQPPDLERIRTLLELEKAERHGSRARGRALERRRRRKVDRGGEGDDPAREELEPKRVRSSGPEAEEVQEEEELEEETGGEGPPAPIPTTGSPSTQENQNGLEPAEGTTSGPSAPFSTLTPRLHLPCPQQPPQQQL

With C=CCOc1c(CNn2cnnc2S)cccc1OC [YUKA1, 4-([2-(allyloxy)-3-methoxybenzyl]amino)-4H-1,2,4-triazole-3-thiol] the “fold less active against KDM5C (vs KDM5A)” value (KDM5C) was about 3 fold, the “global H3K4me3 levels” value [1] was “increased global H3K4me3 levels” and the H3K4 methylation [2] was “only minor changes”. The H3K4 methylation levels [3] was “did not affect H3K4 methylation levels”, the “cell proliferation relative to DMSO” value (HeLa cells [4]) was “less than half of DMSO-treated cells” and the cell proliferation (ZR-75-1 cells) was “decreased cell proliferation during 5 days of treatment in a dose-dependent manner”. The “growth in colony-formation assay” value (HeLa cells [5]; 5 μM KDMS-C70 or 50 or 100 μM YUKA1) was “suppresses growth”, the “number of colonies formed vs DMSO control” value (HeLa cells [5]; two-week treatment) was “significantly reduced” and the “cell growth, compound alone” value (PC9 cells; PC9, compound alone) was “not significantly affected”. The “colony formation under gefitinib vs DMSO control” value (PC9 cells; PC9, long-term treatment with 2 μM gefitinib plus compound) was “fewer YUKA1-treated cells formed colonies”, the “cell growth, compound alone” value (BT474 cells; BT474, compound alone) was “not changed” and the “emergence of colonies under trastuzumab” value (BT474 cells; BT474, trastuzumab 5 μg/ml plus compound) was “significantly less”. For the same molecule, the “growth in colony-formation assay” value (MDA-MB231 cells) was “suppresses growth”.
